pKd: −log10 of the molar value.
Target: T1, CASP3 (Casp3) (Homo sapiens, UniProt P42574)
T1 construct: commercial recombinant protein, captured on Ni-NTA chip (His tag implied)
T1 sequence (P42574 29-175): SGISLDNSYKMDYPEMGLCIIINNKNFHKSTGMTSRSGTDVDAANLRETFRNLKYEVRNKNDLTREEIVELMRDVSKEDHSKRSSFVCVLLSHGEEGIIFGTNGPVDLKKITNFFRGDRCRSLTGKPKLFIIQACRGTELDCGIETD
T1 sequence (P42574 176-277): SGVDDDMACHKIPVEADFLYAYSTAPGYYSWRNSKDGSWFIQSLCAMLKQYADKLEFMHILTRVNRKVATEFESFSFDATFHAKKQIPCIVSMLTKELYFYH
Test: SPR (OpenSPR, NTA chip, one-to-one model)
Type: binding
Description: SPR (OpenSPR, NTA chip, one-to-one model) on CASP3 (Casp3)

pKd: 5.12
SMILES: O=c1c(O)c(-c2ccc(O)cc2)oc2cc(O)cc(O)c12 [Kaempferol]

Source: paper PMC9078765, “Utilizing Network Pharmacology and Molecular Docking Integrated Surface Plasmon Resonance Technology to Investigate the Potential Targets and Mechanisms of Tripterygium wilfordii against Pulmonary Artery Hypertension” (Evidence-based Complementary and Alternative Medicine : eCAM, 2022)
